Test results from paper PMC8085067, “The dimer-monomer equilibrium of SARS-CoV-2 main protease is affected by small molecule inhibitors” (Scientific Reports, 2021).
Entries after “also recorded” stand apart in the source; their conditions may differ.

Target: SARS-CoV-2 M^pro dimer-monomer equilibrium (Severe acute respiratory syndrome coronavirus 2, UniProt P0DTD1)
Assay: SAXS analysis of M^pro dimer-monomer equilibrium in presence of inhibitors
Conditions: for effect on M^pro dimer-monomer equilibrium (in words): SAXS; for αCp (rate of change of dissociation heat capacity with inhibitor concentration) / αS (rate of change of dissociation entropy with inhibitor concentration) / αG (rate of change of dissociation Gibbs free energy with inhibitor concentration): global SAXS fit, M^pro 30 μM; for αG (rate of change of dissociation Gibbs free energy with inhibitor concentration): inhibitor 30 and 60 μM, 30-45 °C

Row | Structure (SMILES) | effect on M^pro dimer-monomer equilibrium (in words) | αCp (rate of change of dissociation heat capacity with inhibitor concentration) | αS (rate of change of dissociation entropy with inhibitor concentration) | αG (rate of change of dissociation Gibbs free energy with inhibitor concentration)
1 | OCCN(CCOc1c(F)c(F)c(-c2nc(-c3ccncc3)no2)c(F)c1F)CCOc1c(F)c(F)c(-c2nc(-c3ccncc3)no2)c(F)c1F [Inhibitor 3] | do not affect in a significant way the dimer-monomer equilibrium; also recorded: does not alter the native dissociation equilibrium | 0±4 10^-2 μM^-1 | -8±4 10^-2 μM^-1 | 0.00±0.08 10^-2 μM^-1
2 | Fc1c(F)c(N2CCOCCOCCOCCOCCOCC2)c(F)c(F)c1-c1nc(-c2ccccc2)no1 [Inhibitor 4, 16-(2,3,5,6-tetrafluoro-4-(3-phenyl-1,2,4-oxadiazol-5-yl)phenyl)-1,4,7,10,13-pentaoxa-16-azacyclooctadecane] | do not affect in a significant way the dimer-monomer equilibrium; also recorded: very weak stabilizing effect of the dimer | -2±2 10^-2 μM^-1 | -1±5 10^-2 μM^-1 | 0.0±0.1 10^-2 μM^-1
3 | CCNC(=O)c1noc(-c2c(F)c(F)c(NCCN(CCNc3c(F)c(F)c(-c4nc(C(=O)NCC)no4)c(F)c3F)CCNc3c(F)c(F)c(-c4nc(C(=O)NCC)no4)c(F)c3F)c(F)c2F)n1 [Inhibitor 7, 5,5’,5”-(((nitrilotris(ethane-2,1-diyl))tris(azanediyl))tris(2,3,5,6-tetrafluorobenzene-4,1-diyl))tris(N-ethyl-1,2,4-oxadiazole-3-carboxamide)] | mostly able to increase the dissociation equilibrium constant | -3±3 10^-2 μM^-1 | -5±2 10^-2 μM^-1 | -0.19±0.07 10^-2 μM^-1
